US11286251B2, “Matrix metalloproteinase inhibitors and imaging agents, and methods using same” (Yale University, priority 2016, dated 2022)
Entries after “also recorded” stand apart in the source; their conditions may differ.

How the values were obtained:
[1] = Partition coefficient between n-octanol and water or Tris buffer; type: physicochemical; settings: for logD: coligands Tricine-TPPTS
Experimental: Matrix metalloproteinase-targeted imaging agents known in the art suffer from poor solubility of their precursors and have blood clearance times that make them ill-suited for practical application. The partition coefficient (Log D) values of ^99mTc-1 and ^99mTc-RP805 were determined based on their proportional distribution between n-octanol and water or Tris buffer at pH 7.4. […] Compared with ^99mTc-RP805 and its precursor, the increased hydrophilicity of ^99mTc-1 (and 1) can in one aspect be ascribed to the introduction of arginine residue.

[2] = Blood kinetics and biodistribution in C57BL/6J mice; settings: mouse, in vivo; for blood pool activity: iv
Experimental: Biodistribution at 2 h post-injection (p.i.) and blood clearance were evaluated in C57Bl/6J mice injected with 16±5 MBq of ^99mTc-1 (n=6) or ^99mTc-RP805 (n=6). In vivo targeting to aneurysm and specificity of ^99mTc-1 was evaluated in high-fat fed apolipoprotein E-deficient mice, 4 weeks after carotid aneurysm induction through peri-adventitial application of CaCl2. The animals were injected with 31±14 MBq of ^99mTc-1 with (n=3) or without (n=4) pre-injection of non-labeled 1.

[3] = system: CaCl2-induced carotid aneurysm; assay: Quantitative autoradiography of carotid aneurysm, blocking study; type: in vivo, apoE−/− mice; settings: autoradiography at 2 h
Experimental: Arterial aneurysm was induced by exposing the left common carotid artery of apolipoprotein E-deficient (apoE^−/−) mice to calcium chloride. Briefly, 4- to 6-wk-old female apoE^−/− mice (n=96; Jackson Laboratory) were fed high-cholesterol chow ad libitum. After 1 wk, the carotid arteries were exposed by blunt-end dissection under anesthesia. The left common carotid artery just below the carotid bifurcation was adventitially exposed to a 10% solution of CaCl2 for 20 min. The opposite carotid artery was exposed to normal saline and served as a control for imaging studies (Razavian, et al., 2010, J Nucl Med. 51(7):1107-15).
For autoradiography, the specimens were mounted on a board and placed in contact with to a reusable phosphor screen (MultiSensitive Phosphor Screen, PerkinElmer) along with standards of known activity. The screen was scanned in a phosphor imager system (Typhoon Trio, GE Healthcare Life Sciences) at a pixel size of 25×25 μm and images were analyzed using the Fiji software. Tracer uptake was quantified using a standard curve and expressed a % injected dose (ID)/pixel.
The tissues were placed on a phosphor screen (MultiSensitive Phosphor Screen, PerkinElmer) along with standards of known activity. […]

[4] = system: suprarenal abdominal aorta (AAA); assay: microSPECT/CT imaging of AAA in angiotensin II-infused mice; type: in vivo, apoE−/− mice
Experimental: In addition, sixteen weeks-old male apoE^−/− (n=16) were infused with human angiotensin II (Ang II, 1000 ng/kg/min, Calbiochem), delivered by a subcutaneous osmotic minipump (Model 2004, Alzet) implanted under anesthesia (isoflurane 2%).
Animals were imaged using a dedicated high resolution small animal imaging system (X-SPECT, GammaMedica), using one mm low energy (for ^99mTc) pinhole collimators. The spatial resolution of this system for ^99mTc in tomographic images with a 1-mm pinhole collimator and 4 cm radius of rotation was 1.1 mm full-width half-maximum. Radiotracer (1 mCi for mice) was injected through an intravenous catheter. Anesthetized mice (with isoflurane) were placed in a fixed position under the camera. Three point sources of known activity (˜1 μCi) were placed in the field of view, but outside the body, to quantify tracer uptake and to verify the accuracy of image fusions. […]
After completion of microSPECT images CT imaging was performed (energy: 75 kV/280 μA, matrix: 512×512) to identify anatomical structure. […] Images were analyzed using Xeleris Functional Imaging Workstation (General Electric, Waukesha, Wis.). […] Activities of each organ was expressed as % ID using the point sources. […]
RNA was isolated from aortic tissue using GenElute Mammalian Total RNA Miniprep Kit (Sigma-Aldrich) and reverse-transcribed using QuantiTect Reverse Transcription Kit (Qiagen). […]

[5] = Radiochemical stability in mouse blood by radio-HPLC; type: in vitro ADME; settings: in vitro incubation at 37° C. up to 5 hours
Experimental: Tracers were incubated in blood (200 μL) with gentle agitation (Thermo mixer, 1000 rpm) at 37° C. for 4 h. At 0, 2, and 4 h time points, 40 μL of blood sample were collected and centrifuged at 4° C. (3000 rpm, 20 min). 10 μL of the supernatant (plasma) were collected and diluted in methanol (90 μL). The sample was then vortexed for 30 s at room temperature and centrifuged at 4° C. (3000 rpm, 15 min). 50 μL of the supernatant were concentrated, filtered and analysed by radioHPLC or LC-MS.
(§1) Radiolabeling quality control was performed by reverse phase radio-HPLC analysis (HPLC system 2489, Waters) with a flow rate of 1 mL/min using an analytical column (JUPITER® 4 μm Proteo 90 Å, Phenomenex) with gradients of solvent A (0.16% ammonium formate in aqueous solution) and solvent B (0.16% ammonium formate in 90% acetonitrile). The HPLC gradients were programmed as follows: 10% B for 2 min, 10-70% B in 5 min, 5 min 70% B and 70-90% B in 5 min. In vitro and in vivo stability of the tracer were analyzed by radio-HPLC following in vitro incubation in mouse blood at 37° C. for up to 5 hours, and from urine collected at 2 hours after tracer injection, respectively.

Aqueous solubility = type: physicochemical
[6] = In vivo radiochemical stability, radio-HPLC of urine; set-up: species or system C57BL/6J mouse; settings: urine collected 2 hours after intravenous injection
Experimental: as §1

[7] = Stability in saline / radiolabeling media by RP-HPLC; type: physicochemical; settings: room temperature
[8] = all tissues evaluated, but not the bile; 2 h
Experimental: To investigate biodistribution in apoE^−/− mice, animals at seven weeks after peri-adventitial application of CaCl2 or NaCl to carotid arteries were injected with 31±14 MBq (14±2 pg/kg) of ^99mTc-1, with (n=5) or without (n=6) pre-injection of an excess of the parent inhibitor 19 (23±8 ng/kg). Animals were kept under anesthesia for 60 min and blood samples were collected at various times post-injection. Tissue samples and body fluids were collected and weighed at 2 hours post-injection, and measured for their radioactivity by gamma-well counting (WIZARD2®, PerkinElmer). Data were expressed as percentage of injected dose (ID) per gram of tissue or mL of blood.
^99mTc-1 binding to carotid aneurysm and specificity in vivo were evaluated in apoE^−/− mice at seven weeks after peri-adventitial application of CaCl2 to left carotid arteries.

CC(C)C[C@H]1C(=O)N[C@H](C(=O)N[C@@H](CCCNC(=N)N)C(=O)NCCNC(=O)c2ccc(N[N]=[Tc]345([PH](c6cccc(S(=O)(=O)O)c6)(c6cccc(S(=O)(=O)O)c6)c6cccc(S(=O)(=O)O)c6)[O]CC(CO)(C[O]3)[N]4CC(=O)[O]5)nc2)Cc2ccc(cc2)OCCC[C@@H]1C(=O)NO [^99mTc-1] showed a logD ([1]; n-octanol/Tris buffer, Octanol/Tris (pH = 7.4)) of -4.4 ± 0.1, a logD ([1]; n-octanol/water, Octanol/water) of -4 ± 0.1 and a logP ([1]; n-octanol/water, read-out: Log P n-octanol/water) of -4 ± 0.1. For the same compound, the “hepatobiliary excretion: bile activity” value ([2]; 2 h) was 1.5±0.3 % ID/g, the “tissue uptake in control aorta” value ([2]; 2 h) was 6.0±1.4 % ID/g and the blood pool activity ([2]; 1 h) was 1.3±0.4 % ID/mL. For the same compound, the blood pool activity ([2]; 2 h) was 1.0±0.4 % ID/mL, the “decrease in aneurysm-to-aorta uptake ratio under blocking conditions” value [3] was 1.8 fold and the “decrease in carotid aneurysm tracer uptake on pre-injection of excess parent pan-MMP inhibitor” value ([3]; blocking vs no blocking) was 4.6 fold. The “left ventricle blood pool activity” value ([4]; AAA group) was 0.14±0.10 cpv/MBq, the “left ventricle blood pool activity” value ([4]; low remodeling group) was 0.12±0.08 cpv/MBq and the “radiochemical stability in mouse blood” value [5] was “high radiochemical stability; also recorded: good stability; also recorded: single peak; also recorded: radiochemically stable”. The “water solubility (in words)” value (Aqueous solubility) was “high water solubility”, the “in vivo radiochemical stability (urine)” value [6] was “high radiochemical stability” and the stability in saline [7] was “good stability”. For the same compound, the “tissue uptake by gamma well counting on pre-injection of parent pan-MMP inhibitor” value [8] was “significantly reduced”.
